Read-outs that look alike come from different tables or passages of the source.

Series [1] deals with T1, NK3 receptors (Homo sapiens, UniProt P29371).
T1 construct: expressed in transfected cells
T1 sequence (P29371 1-465): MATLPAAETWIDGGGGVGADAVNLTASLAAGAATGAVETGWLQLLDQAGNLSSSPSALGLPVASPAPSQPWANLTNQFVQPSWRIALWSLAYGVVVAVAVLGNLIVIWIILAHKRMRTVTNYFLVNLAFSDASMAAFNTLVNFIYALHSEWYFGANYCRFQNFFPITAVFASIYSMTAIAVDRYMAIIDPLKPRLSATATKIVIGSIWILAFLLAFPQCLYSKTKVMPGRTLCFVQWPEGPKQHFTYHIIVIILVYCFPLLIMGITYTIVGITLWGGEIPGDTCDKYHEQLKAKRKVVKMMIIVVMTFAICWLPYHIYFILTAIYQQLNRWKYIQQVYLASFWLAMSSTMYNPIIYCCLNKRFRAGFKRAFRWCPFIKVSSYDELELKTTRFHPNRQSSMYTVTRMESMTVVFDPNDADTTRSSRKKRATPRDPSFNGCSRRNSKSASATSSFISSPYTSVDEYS
As to the kind of experiment: Calcium ion fluidity (FLIPR) in cells with stable expression of NK3 receptors. The series is classed as cell-based. As to conditions: calcium signal, antagonist mode, read-out: NK3R IC50 (nM) FLIPR. The text has this:
Determination of the Effect of the Compounds of the Present Invention on Calcium Ion Fluidity in Cells with Stable Expression of NK3 Receptors
Experimental objective: The objective of this test example was to determine the inhibitory effect of the compounds on NK3 receptors.
Experimental Methods: • 1. […] Probenecid and BSA were freshly added on the day of the experiment. The buffers for the experiments included dye buffer, compound dilution buffer and the like. • 2. […] The culture medium was discarded, and 20 μL of dye was added. The cells were incubated at 37° C. in the dark for 60 min, and then the calcium signal was read. • 4. The antagonist was prepared before the experiments. […] The plate was transferred to FLIPR, and 6× concentration of the agonist compound was added at 5 μL/well. The values were read and the data were saved by using FLIPR. The total assay volume was 30 μL, comprising 20 μL/well of dye buffer, 5 μL/well of 5× concentration of the experimental compound, and 5 μL/well of 6× concentration of the agonist compound.
The calcium signal value was read by FLIPR. The output of each sampling time point in the experiment was calculated as the ratio of the signals at wavelengths of 340/510 nm to 380/510 nm. The maximum minus minimum value was calculated from the ratio signal curve. The IC50 value of the compound was calculated by fitting the data of inhibition rate percentage and ten concentrations to the parametric nonlinear logistic equation by using GraphPad prism.

Series [2] deals with T1, NK3 receptors. In words: Antagonism of IP1 in HEK293 cells with stable expression of NK3. The series is classed as cell-based. As to conditions: agonist Senktide 3 nM, read-out: NK3R IC50 (nM) IP1. How it is done:
Determination of the Effect of the Compounds of the Present Invention on IP1 in HEK293 Cells with Stable Expression of NK3
The objective of this test example was to determine the antagonism effect of the compounds on the activity of HEK293-NK3 cells.
3. Experimental Methods: • 1. […] HEK293-NK3 cell line was cultured in complete medium and seeded in the coated dishes at 37° C., 5% CO2 until 70%˜90% confluence. • 3. […] The cells were digested and resuspended in 1× Stimulation Buffer (IP-ONE Gq Kit), seeded into the 384-well cell culture plate (which contained the compound to be tested) at 5,000 cells/well/5 μL by using Multidrop Combi. The culture plate was centrifuged at 300 rpm at room temperature for 60 seconds, and then incubated at 37° C., 5% CO2 for 15 minutes. • 5. The cell culture plate was taken out from the CO2 incubator. […] The culture plate was centrifuged at 300 rpm at room temperature for 60 seconds, and then incubated at 37° C., 5% CO2 for 2 hours. • 6. The cell culture plate was taken out from the CO2 incubator. 5 μL of IP1 d2 reagent and then 5 μL of IP1 Tb Cryptate Antibody reagent were added by using Multidrop Combi. The culture plate was centrifuged at room temperature at 300 rpm for 60 seconds, and left to stand at room temperature for 1 hour. • 7. The plate was read by using EnVision Multilabel Reader, and data were collected at the same time.
The fluorescence signal ratio (Ratio) was read and collected by EnVision Multilabel Reader. According to the readings of the Low control (DMSO control) and High control (p)ositive compound) experimental groups, the antagonism percentage data were calculated as {% antagonism=(Ratio sample−Ratio low control)/(Ratio high control−Ratio low control)×100}.

A short description of series [3]: Pharmacokinetic assay in SD rats (plasma and brain tissue). As to conditions: rat, po, male SD rats, p.o. 5 mg/kg; for AUC(0-t): read-out: Area under curve AUC0-t; for Tmax: read-out: Peak time tmax; for Cmax: read-out: Plasma concentration Cmax. It is filed as in vivo. How it is done: Test Example 4. Pharmacokinetic Assays in SD Rats
SD rats were used as test animals. The in vivo (plasma and brain tissue) pharmacokinetic behavior of the compounds of the present invention was investigated by oral administration of the compound in rats at a dose of 5 mg/kg.
Male SD rats (21 animals per group), purchased from Shanghai JieSiJie Laboratory Animal Co., Ltd., under the Animal Production License Number of SCXK (Shanghai) 2013-0006 No. 311620400001794.
The experimental drug was dissolved in 0.5% CMC-Na (1% Tween 80) by sonication to formulate a clear solution or a homogeneous suspension.
After an overnight fast, male SD rats (21 animals per group) were administered p.o. with the experimental drug at an administration dose of 5 mg/kg and the administration volume of 10 mL/kg.
Rats were sacrificed with CO2 at 0, 0.5, 1, 2, 4, 8 and 24 hours before and after the drug administration. 8 mL of blood was collected by cardiac puncture, placed in EDTA-K2 tubes, and centrifuged at 4° C. at 6,000 rpm for 6 min. Plasma was separated and stored at −80° C. The whole brain tissue was dissected and weighed, and then placed in a 2 mL centrifuge tube and stored at −80° C.
2.6 Sample Processing: • 1) 160 μL of acetonitrile was added to 40 μL of plasma sample for precipitation. After mixing, the sample was centrifuged at 3500×g for 5-20 minutes. • 2) 90 μL of acetonitrile containing internal standard (100 ng/mL) was added to 30 μL of plasma or brain homogenate sample for precipitation. After mixing, the sample was centrifuged at 13,000 rpm for 8 minutes. • 3) 70 μL of water was added to 70 μL of treated supernatant, and mixed by vortex for 10 minutes. Then 20 μL of the sample was analyzed by LC/MS/MS to determine the concentration of the compound to be tested. The LC/MS/MS instrument for analysis was AB Sciex API 4000 Qtrap.
2.7 Liquid Chromatography Analysis: • Liquid chromatography conditions: Shimadzu LC-20AD pump • Chromatographic column: Agilent ZORBAX XDB-C18 (50×2.1 mm, 3.5 μm) Mobile phase: Eluent A was 0.1% formic acid in water, and Eluent B was acetonitrile. • Flow rate: 0.4 mL/min • Elution time: 0-4.0 minutes, the eluate was as follows:
The major pharmacokinetic parameters were calculated by using WinNonlin 6.1, and the results of the pharmacokinetic experiments in rats were shown in Table 3 below: […]

The test system of series [4] is Senktide-induced bilateral ovariectomy rats. In words: Tail skin temperature in a Senktide-induced bilateral ovariectomy rat model. The settings on record: OVX SD rats, oral 30 mg/kg, 30 min before s.c. Senktide, tail skin temperature over 75 min. The series is classed as in vivo. From the text:
Pharmacodynamic Study of the Test Compounds on Tail Skin Temperature in a Senktide-Induced Bilateral Ovariectomy Rat Model
To evaluate the effect of the test compounds on tail skin temperature in Senktide-induced bilateral ovariectomy rats.
2.3. Experimental Animals • Ten-Week-old female bilateral ovariectomy SD rats were purchased from Beijing Vital River Laboratory Animal Technology Co., Ltd. The animals were housed in a SPF grade animal facility with 5 SD rats per cage. The cages, bedding, feed and water were disinfected at high temperatures before use. All animals had free access to food and water.
Ten-week-old female SD rats were subjected to bilateral ovariectomy and recovered for two weeks, and then randomly divided into negative control group, model group and drug administration group (8 rats per group), based on body weight. The probe was attached to the dorsal surface of the rat tail with medical tape, 1-2 cm away from the tailhead of the rat.
The vehicle was administered orally to the negative control group and the model group, and different test compounds were administered orally to each drug administration group at a dose of 30 mg/kg and a volume of 10 mL/kg.
Thirty minutes after the oral administration of the vehicle or test compound, the negative control group was injected subcutaneously with normal saline (at a volume of 5 mL/kg); the model group and each drug administration group were injected subcutaneously with 0.2 mg/mL of Senktide (at a volume of 5 mL/kg) to induce the hot flashes-like symptom.
The change in tail skin temperature (ΔTST) at each time point relative to time point 0 was calculated, the ΔTST-time curve of the change in tail skin temperature was plotted, and the area under curve (AUCΔTST) was calculated. ΔTST=TSTn−TST0, TST0 is the tail skin temperature at 0 minute before the subcutaneous injection of normal saline or Senktide; TSTn is the tail skin temperature at the n minute after the subcutaneous injection.
AUCΔTST=Σ(ΔTSTn+ΔTSTn+5)*5/2

`C[C@@H]1c2nnc(-c3nc4cc(F)c(F)cc4s3)n2CCN1C(=O)c1ccc(F)cc1` [Example 17, (R)-(3-(5,6-Difluorobenzo[d]thiazol-2-yl)-8-methyl-5,6-dihydro-[1,2,4]triazolo[4,3-a]pyrazin-7(8H)-yl)(4-fluorophenyl)methanone]: the IC50 at NK3 receptors [1] turned out to be 6.81 nM. Besides, the IC50 on NK3 receptors [2] amounted to 15.2 nM. Also, in series [3] (Brain), the AUC(0-t) amounted to 3230 ng·h/mL, the Tmax was 4 h and the Cmax turned out to be 1120 ng/mL. For the same molecule, in series [3] (Plasma), the AUC(0-t) came to 46700 ng·h/mL, the Tmax amounted to 6 h and the Cmax came to 2300 ng/mL.
In the case of `C[C@@H]1c2nnc(-c3nc(Cl)ns3)n2CCN1C(=O)c1ccc(Cl)cc1` [Example 57, (R)-(3-(3-Chloro-1,2,4-thiadiazol-5-yl)-8-methyl-5,6-dihydro-[1,2,4]triazolo[4,3-a]pyrazin-7(8H)-yl)(4-chlorophenyl)methanone], the IC50 at NK3 receptors [1] is 61 nM. Moreover, at NK3 receptors [2], the IC50 is 28.9 nM. For the same molecule, in series [3] (Brain), the AUC(0-t) was 2340 ng·h/mL, the Tmax amounted to 1 h and the Cmax worked out at 670 ng/mL. Further, in series [3] (Plasma), the AUC(0-t) came out at 7130 ng·h/mL, the Tmax stood at 2 h and the Cmax came out at 930 ng/mL. Besides, the half-life in series [3] (Plasma, read-out: Half life t1/2 (converted)) is 3.2 h. The mean residence time MRT in series [3] (Plasma, read-out: Mean residence time MRT) amounted to 4.8 h.
Turning to `[2H]c1cc(C(=O)N2CCn3c(-c4nc5ccc(F)cc5s4)nnc3[C@H]2C)ccc1Cl` [Example 101, (R)-(4-Chlorophenyl-3-d)(3-(6-fluorobenzo[d]thiazol-2-yl)-8-methyl-5,6-dihydro-[1,2,4]triazolo[4,3-a]pyrazin-7(8H)-yl)methanone], the figures for the IC50 on NK3 receptors [1] and on NK3 receptors [2] were 86.7 nM and 61 nM, respectively.
For `[2H]c1cc(C(=O)N2CCn3c(-c4nc5ccc(Cl)cc5s4)nnc3[C@H]2C)ccc1Cl` [Example 102, (R)-(3-(6-Chlorobenzo[d]thiazol-2-yl)-8-methyl-5,6-dihydro-[1,2,4]triazolo[4,3-a]pyrazin-7(8H)-yl)(4-chlorophenyl-3-d)methanone] the same measures were 32.5 nM and 16.4 nM.
Consider `[2H]c1cc(C(=O)N2CCn3c(-c4nc5ccc(Cl)cc5s4)nnc3[C@H]2C)ccc1F` [Example 103, (R)-(3-(6-Chlorobenzo[d]thiazol-2-yl)-8-methyl-5,6-dihydro-[1,2,4]triazolo[4,3-a]pyrazin-7(8H)-yl)(4-fluorophenyl-3-d)methanone], for which the figures for the IC50 at NK3 receptors [1] and on NK3 receptors [2] were 27.1 nM and 16 nM, respectively.
For `[2H]c1cc(C(=O)N2CCn3c(-c4nc5cc(Cl)c(F)cc5s4)nnc3[C@H]2C)ccc1F` [Example 105, (R)-(3-(5-Chloro-6-fluorobenzo[d]thiazol-2-yl)-8-methyl-5,6-dihydro-[1,2,4]triazolo[4,3-a]pyrazin-7(8H)-yl)(4-fluorophenyl-3-d)methanone] the same measures were 268 nM and 108 nM.
For `[2H]C([2H])([2H])N(c1nsc(-c2nnc3n2CCN(C(=O)c2ccc(Cl)cc2)[C@@H]3C)n1)C([2H])([2H])[2H]` [Example 107, (R)-(3-(3-(Bis(methyl-d3)amino)-1,2,4-thiadiazol-5-yl)-8-methyl-5,6-dihydro-[1,2,4]triazolo[4,3-a]pyrazin-7(8H)-yl)(4-chlorophenyl)methanone] the same measures were 184 nM and 80.5 nM.
On to `Cc1nsc(-c2nnc3n2CCN(C(=O)c2ccc(F)cc2)[C@@H]3C)n1` [Fezolinetant], for which the IC50 at NK3 receptors [1] worked out at 904 nM. Also, the AUCΔTST in series [4] came to 116.7 ± 50.6 °C · min.

For orientation: IC50 means the concentration at which inhibition is half-maximal. Broadly, the Tmax is the time at which the peak concentration occurs. What is called MRT is a mean duration of stay, worked out from the concentration-time curve.

The values are drawn from US20230271969A1, “NITROGEN-CONTAINING FUSED RING DERIVATIVE INHIBITOR, PREPARATION METHOD THEREFOR AND USE THEREOF” (Shanghai Hansoh Biomedical Co., Ltd., priority 2020, published 2023).
